From ChEMBL document CHEMBL1201862, “PubChem BioAssay data set” (2004) come the findings set out here.

Test [1] addresses Tyrosine-protein kinase receptor TYRO3 (Homo sapiens, UniProt Q06418). It is filed as functional.
Test [2] addresses MAP kinase-activated protein kinase 5 (Homo sapiens, UniProt Q8IW41). It is filed as functional.

The source made the active and inactive calls. No stated cut-off is given here; in the data, actives have a measured Ki and inactives only a lower limit.

Tyrosine-protein kinase receptor TYRO3, sequence (Q06418 whole entry): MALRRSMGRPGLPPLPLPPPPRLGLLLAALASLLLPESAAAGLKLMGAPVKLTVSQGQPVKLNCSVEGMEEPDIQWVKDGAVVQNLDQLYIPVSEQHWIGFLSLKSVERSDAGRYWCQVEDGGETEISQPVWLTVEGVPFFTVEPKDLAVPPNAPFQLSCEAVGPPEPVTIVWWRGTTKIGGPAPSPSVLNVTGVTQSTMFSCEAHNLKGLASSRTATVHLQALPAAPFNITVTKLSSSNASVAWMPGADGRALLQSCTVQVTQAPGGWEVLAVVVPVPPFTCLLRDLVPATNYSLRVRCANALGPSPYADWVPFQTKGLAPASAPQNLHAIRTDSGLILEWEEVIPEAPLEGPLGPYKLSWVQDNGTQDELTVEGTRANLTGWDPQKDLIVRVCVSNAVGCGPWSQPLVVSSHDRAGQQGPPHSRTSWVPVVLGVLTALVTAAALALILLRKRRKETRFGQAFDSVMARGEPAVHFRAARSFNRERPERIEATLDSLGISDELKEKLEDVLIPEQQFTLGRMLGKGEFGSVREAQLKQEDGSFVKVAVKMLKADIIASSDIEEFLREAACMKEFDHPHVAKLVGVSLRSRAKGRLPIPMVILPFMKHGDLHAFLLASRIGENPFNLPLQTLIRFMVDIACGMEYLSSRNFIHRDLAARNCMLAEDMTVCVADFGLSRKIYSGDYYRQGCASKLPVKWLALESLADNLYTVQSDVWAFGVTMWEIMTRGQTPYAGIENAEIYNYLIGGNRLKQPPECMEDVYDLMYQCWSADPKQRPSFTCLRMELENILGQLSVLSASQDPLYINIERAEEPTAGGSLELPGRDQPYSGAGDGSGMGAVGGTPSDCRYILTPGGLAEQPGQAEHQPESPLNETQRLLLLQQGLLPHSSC
MAP kinase-activated protein kinase 5, sequence (Q8IW41 whole entry): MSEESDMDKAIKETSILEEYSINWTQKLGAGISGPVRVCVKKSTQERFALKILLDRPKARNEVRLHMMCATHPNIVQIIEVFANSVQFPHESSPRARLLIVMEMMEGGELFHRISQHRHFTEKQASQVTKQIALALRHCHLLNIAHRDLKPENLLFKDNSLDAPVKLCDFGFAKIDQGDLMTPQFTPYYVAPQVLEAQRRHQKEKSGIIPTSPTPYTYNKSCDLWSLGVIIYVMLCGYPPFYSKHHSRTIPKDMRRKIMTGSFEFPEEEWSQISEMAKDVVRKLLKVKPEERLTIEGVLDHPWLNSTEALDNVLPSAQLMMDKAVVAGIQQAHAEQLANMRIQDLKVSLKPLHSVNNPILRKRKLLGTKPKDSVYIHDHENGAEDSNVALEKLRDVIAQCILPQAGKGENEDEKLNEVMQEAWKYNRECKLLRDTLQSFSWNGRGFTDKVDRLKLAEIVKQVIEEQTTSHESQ

The Ki is a measure of affinity in units of concentration, obtained from inhibition or displacement. Consider `Cc1n[nH]c2cnc(-c3cncc(OCC(N)Cc4cccc(C(F)(F)F)c4)c3)cc12` (configuration not stated), for which the Ki in test [1] is 2 µM (active); in test [2], > 1.58 µM (inactive).
